Reference: patent publication US5324648A, “Substituted isocoumarins as serine protease inhibitors and anti-inflammatory agents” (Georgia Tech Research Corporation, priority 1992, dated 1994)
Read-outs that look alike come from different tables or passages of the source.

Key:
[1] = molecular target: sheep lung lymph tryptase; assay: Inactivation rate of sheep lung lymph tryptase; type: biochemical; conditions: Table III; pH 7.5, 25° C; [I] 10 to 460 μM
Method: Inactivation rates of serine proteases by substituted isocoumarins were measured by the incubation method. An aliquot of inhibitor (25 or 50 μl) in Me2 SO was added to a buffered enzyme solution (0.01-2.3 μM) to initiate the inactivation. Aliquots (50 μl) were withdrawn at various intervals and the residual enzymatic activity was measured. […] 0.1 Hepes, 0.01M CaCl2, pH 7.5 buffer was utilized for trypsin and coagulation enzymes. […] The inhibitor concentrations are shown in all the tables. Peptide thioesters or peptide nitroanilides with appropriate sequence were used as substrates for various serine proteases.
^a Inactivation rates were measured at 0.1M Hepes, 0.5M NaCl, pH 7.5
buffer, 8% Me2 SO and 25° C.

[2] = tested on: T1, human Q-31 tryptase (Homo sapiens); assay: Inactivation rate of human Q-31 tryptase; type: biochemical; conditions: Table VII; pH 7.5, 25° C; [I] 3 to 500 μM; read-out: kobs/[I]
T1 construct: human cytotoxic lymphocyte Q31 tryptase; endogenous in cells; host or cells: human cytotoxic lymphocyte Q31
T1 sequence (P12544 29-262): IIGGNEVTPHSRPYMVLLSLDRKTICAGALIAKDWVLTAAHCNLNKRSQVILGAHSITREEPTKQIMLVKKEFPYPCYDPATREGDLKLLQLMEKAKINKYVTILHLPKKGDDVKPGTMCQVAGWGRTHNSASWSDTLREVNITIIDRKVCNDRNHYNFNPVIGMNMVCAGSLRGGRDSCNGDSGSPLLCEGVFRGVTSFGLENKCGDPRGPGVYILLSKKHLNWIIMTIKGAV
Method: (§1) Inactivation rates of serine proteases by substituted isocoumarins were measured by the incubation method. An aliquot of inhibitor (25 or 50 μl) in Me2 SO was added to a buffered enzyme solution (0.01-2.3 μM) to initiate the inactivation. Aliquots (50 μl) were withdrawn at various intervals and the residual enzymatic activity was measured. Me2 SO concentration in the reaction mixture was 8-12% (v/v). 0.1 Hepes, 0.01M CaCl2, pH 7.5 buffer was utilized for trypsin and coagulation enzymes. 0.1M Hepes, 0.5M NaCl, pH 7.5 was utilized for other serine proteases. The inhibitor concentrations are shown in all the tables. Peptide thioesters or peptide nitroanilides with appropriate sequence were used as substrates for various serine proteases. All peptide thioester hydrolysis rates were measured with assay mixtures containing 4,4'-dithiodipyridine (ε324 =19800M^-1 cm^-1; Grasetti & Murray, Arch. Biochem. Biophys. 119, pp 41-49 (1967)). Peptide 4-nitroanilide nitroanilide hydrolysis was measured at 410 nm (ε410 =8800M^-1 cm^-1; Erlanger et al., Arch. Biochem. Biophys. 95, pp 271-278 (1961)). First order inactivation rate constant (kobs) were obtained from plots of ln (vt /vo) vs time, and the correlation coefficients were greater than 0.98.
^a Inactivation rates were measured at 0.1M Hepes, 0.01M CaCl2,
pH 7.5, 8% Me2 SO and 25° C. by incubation method. ZArg-SBzl
(74-85 μM) was used as the substrate to monitor the residual enzymatic

human lung tryptase = assay: Inactivation rate of human lung tryptase; type: biochemical; conditions: pH 7.5, 25° C
Method in brief: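 Incubation method in 0.1M Hepes, 0.5M NaCl, pH 7.5, 8% Me2SO, 25° C; inhibitor added to enzyme, aliquots withdrawn over time for residual activity. Substrate ZArg-SBzl (0.07 mM) with 4,4'-dithiodipyridine (0.33 mM). kobs from ln(vt/vo) vs time plots.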

rat skin tryptase = molecular target: T2, rat skin tryptase (Rattus norvegicus, UniProt P27435); assay: Inactivation rate of rat skin tryptase; type: biochemical; conditions: pH 7.5, 25° C, read-out: kobs/[I]
T2 construct: from tissue; host or cells: rat skin
T2 sequence (P27435 29-273): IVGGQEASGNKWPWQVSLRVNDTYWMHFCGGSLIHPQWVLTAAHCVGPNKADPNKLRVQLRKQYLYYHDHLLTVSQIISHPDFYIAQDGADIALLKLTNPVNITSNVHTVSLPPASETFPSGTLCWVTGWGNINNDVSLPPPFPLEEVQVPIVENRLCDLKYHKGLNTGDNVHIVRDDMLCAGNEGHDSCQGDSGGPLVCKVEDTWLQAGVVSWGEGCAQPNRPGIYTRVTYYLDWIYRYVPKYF
Method in brief: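 Rat skin tryptase incubated with isocoumarin inhibitor in 25 mM phosphate, 0.5 M NaCl, 1 mM EDTA, pH 7.5, 8-9% Me2SO, 25 °C; aliquots withdrawn over time for residual activity on ZArg-SBzl (0.07 mM) with 4,4'-dithiodipyridine (0.33 mM). First-order kobs from ln(vt/vo) versus time.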

[3] = Spontaneous hydrolysis in Hepes buffer; type: physicochemical; conditions: 0.1 Hepes, 0.5M NaCl, pH 7.5, 9% Me2SO, 25° C; for half-life: hepes buffer, read-out: t1/2 for spontaneous hydrolysis
Method: ^a Conditions were 0.1 Hepes, 0.5M NaCl, pH 7.5 and 9% Me2 SO at
25° C. Spontaneous hydrolysis rates were measured
spectrophotometrically by monitoring the decrease in absorbance due to th
isocoumarin ring system (wavelength 335-380 nm) using the firstorder rate

human plasma kallikrein = molecular target: T3, human plasma kallikrein (Homo sapiens, UniProt P03952); assay: Inactivation rate of human plasma kallikrein; type: biochemical; conditions: Table I, read-out: kobs/[I]
T3 construct: human plasma kallikrein; from tissue; host or cells: human plasma (from the name)
T3 sequence (P03952 391-638 limits assumed): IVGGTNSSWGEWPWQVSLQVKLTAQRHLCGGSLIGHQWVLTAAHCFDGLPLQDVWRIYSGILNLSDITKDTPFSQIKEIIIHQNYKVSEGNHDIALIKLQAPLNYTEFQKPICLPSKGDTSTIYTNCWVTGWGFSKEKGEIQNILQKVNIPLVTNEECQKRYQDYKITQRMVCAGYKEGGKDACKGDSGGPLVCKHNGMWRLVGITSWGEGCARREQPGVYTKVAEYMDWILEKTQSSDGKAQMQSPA
T3 sequence (P03952 20-390 partner limits assumed): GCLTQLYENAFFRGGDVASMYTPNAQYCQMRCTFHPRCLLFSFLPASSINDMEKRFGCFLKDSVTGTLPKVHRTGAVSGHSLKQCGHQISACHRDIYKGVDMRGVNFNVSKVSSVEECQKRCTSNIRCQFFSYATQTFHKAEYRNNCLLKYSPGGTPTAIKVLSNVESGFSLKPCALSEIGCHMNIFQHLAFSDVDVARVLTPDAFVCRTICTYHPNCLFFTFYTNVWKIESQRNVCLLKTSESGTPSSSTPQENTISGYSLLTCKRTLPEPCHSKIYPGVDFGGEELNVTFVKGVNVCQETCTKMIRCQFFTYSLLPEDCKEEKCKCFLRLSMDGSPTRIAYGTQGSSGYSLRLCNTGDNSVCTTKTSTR
Method: as §1
^a Conditions were as 0.1M Hepes, 0.01M CaCl2, pH 7.5 and 8-12%
Me2 SO and 25° C. Rate constants were measured by incubation
method unless otherwise noted. An aliquot of inhibitor was added to an
enzyme solution and aliquots removed with time and assayed for remaining
enzymatic activity. Firstorder rate constants, kobs were obtained
from the plots of ln(vt /vo) versus time.

bovine factor Xa = molecular target: T4, bovine factor Xa (Bos taurus, UniProt P00743); assay: Inactivation rate of bovine factor Xa; type: biochemical; conditions: Table I; pH 7.5, 25° C; [I] 0.4 to 310 μM; read-out: kobs/[I]
T4 construct: bovine factor Xa
T4 sequence (P00743 234-492 limits assumed): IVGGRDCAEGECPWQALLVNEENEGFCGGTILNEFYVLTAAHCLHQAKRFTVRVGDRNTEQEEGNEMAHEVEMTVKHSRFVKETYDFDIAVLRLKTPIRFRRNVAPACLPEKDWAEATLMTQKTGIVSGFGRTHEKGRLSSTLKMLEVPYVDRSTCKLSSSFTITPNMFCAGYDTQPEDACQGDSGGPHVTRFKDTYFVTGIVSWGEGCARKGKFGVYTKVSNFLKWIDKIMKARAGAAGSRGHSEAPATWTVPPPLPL
T4 sequence (P00743 41-180 partner limits assumed): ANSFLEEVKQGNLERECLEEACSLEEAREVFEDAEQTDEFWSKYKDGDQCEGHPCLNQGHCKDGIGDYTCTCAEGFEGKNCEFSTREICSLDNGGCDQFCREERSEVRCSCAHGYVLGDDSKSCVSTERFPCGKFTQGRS

bovine thrombin = molecular target: T5, bovine thrombin (Bos taurus, UniProt P00735); assay: Inactivation rate of bovine thrombin; type: biochemical; conditions: read-out: kobs/[I]
T5 construct: bovine thrombin
Method in brief: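 Enzyme 0.01-2.3 μM, 0.1M Hepes/0.01M CaCl2 pH 7.5, 8-12% Me2SO, 25° C; inhibitor added, timed aliquots assayed for remaining activity; kobs = slope of ln(vt/vo) vs t.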

[4] = molecular target: T6, porcine pancreatic kallikrein (Sus scrofa, UniProt P00752); assay: Inactivation rate of porcine pancreatic kallikrein; type: biochemical; conditions: Table I, read-out: kobs/[I]
T6 construct: from tissue; host or cells: porcine pancreas (from the name)
T6 sequence (P00752 8-246): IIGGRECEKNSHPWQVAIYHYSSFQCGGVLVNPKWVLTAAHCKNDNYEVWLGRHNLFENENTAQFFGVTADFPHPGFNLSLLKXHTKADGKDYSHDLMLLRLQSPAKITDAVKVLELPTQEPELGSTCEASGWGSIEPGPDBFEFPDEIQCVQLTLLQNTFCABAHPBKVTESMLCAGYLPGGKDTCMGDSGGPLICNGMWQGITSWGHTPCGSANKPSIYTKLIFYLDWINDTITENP

[5] = pH 7.5, Table III, 25 mM phosphate, [I] 0.4 to 50 μM
[6] = pH 7.5, based on residual activity at 0.2 min
[7] = Table I, pH 7.5, 25° C, [I] 0.3 to 400 μM
[8] = pH 7.5, 25° C, [I] 0.4 to 300 μM
[9] = pH 7.5, 25° C, [I] 3 to 330 μM (footnote g)
[10] = pH 7.5, Table IX, [I] 0.42-0.51 μM
[11] = pH 7.5, same concentration of enzyme and inhibitor
[12] = pH 7.5, Table I, same concentration of enzyme and inhibitor

## O=c1oc(Cl)c(Cl)c2ccccc12 [3,4-dichloroisocoumarin, reference compound]
[1]
  kobs/[I]: 39 M⁻¹ s⁻¹
[2]
  kinact/KI: 29 M⁻¹ s⁻¹
Human lung tryptase; Table III, [I] 0.4 to 50 μM
  kobs/[I]: 185 M⁻¹ s⁻¹
Rat skin tryptase; [5]
  kinact/KI: 610 M⁻¹ s⁻¹

## N=C(N)SCCOc1oc(=O)c2ccccc2c1Cl [3-(2-isothiureidoethoxy)-4-chloroisocoumarin]
[3]
  half-life: 1.38 h
Human plasma kallikrein; [6]
  kinact/KI: 280000 M⁻¹ s⁻¹
[1]
  kobs/[I]: 290 M⁻¹ s⁻¹
Bovine factor Xa
  kinact/KI: 5600 M⁻¹ s⁻¹
Bovine thrombin; [7]
  kinact/KI: 4700 M⁻¹ s⁻¹
[4]; [8]
  kinact/KI: 12000 M⁻¹ s⁻¹

## NCCCOc1oc(=O)c2ccccc2c1Cl [3-(3-aminopropoxy)-4-chloroisocoumarin]
[3]
  half-life: 2.05 h
Human plasma kallikrein; [9]
  kinact/KI: 1400 M⁻¹ s⁻¹
[1]
  kobs/[I]: 18 M⁻¹ s⁻¹
Human lung tryptase; Table III, [I] 0.4 to 50 μM
  kobs/[I]: 2,000 M^-1 s^-1
Bovine factor Xa
  kinact/KI: 160 M⁻¹ s⁻¹
Rat skin tryptase; [5]
  kinact/KI: 8370 M⁻¹ s⁻¹
Bovine thrombin; [7]
  kinact/KI: 350 M⁻¹ s⁻¹
[4]; [8]
  kinact/KI: 860 M⁻¹ s⁻¹

## N=C(N)SCCCOc1oc(=O)c2ccccc2c1Cl [3-(3-isothiureidopropoxy)-4-chloroisocoumarin]
[3]
  half-life: 1.65 h
Human plasma kallikrein; [6]
  kinact/KI: > 110000 M⁻¹ s⁻¹
[1]
  kobs/[I]: 230 M⁻¹ s⁻¹
[2]
  kinact/KI: 12800 M⁻¹ s⁻¹
Human lung tryptase; Table III, [I] 0.4 to 50 μM
  kobs/[I]: 64,000 M^-1 s^-1
Bovine factor Xa
  kinact/KI: 220 M⁻¹ s⁻¹
Rat skin tryptase; [5]
  kinact/KI: 53000 M⁻¹ s⁻¹
Bovine thrombin; [7]
  kinact/KI: 1430 M⁻¹ s⁻¹
[4]; [8]
  kinact/KI: 19000 M⁻¹ s⁻¹

## N=C(N)SCCCOc1oc(=O)c2cc(N)ccc2c1Cl [7-amino-4-chloro-3-(3-isothiureidopropoxy)isocoumarin]
[3]
  t1/2 for spontaneous hydrolysis: 1.5 h
Human plasma kallikrein; [9]
  kinact/KI: 1100 M⁻¹ s⁻¹
[1]
  kobs/[I]: 710 M⁻¹ s⁻¹
[2]
  kinact/KI: 1960 M⁻¹ s⁻¹
Human lung tryptase; Table III, [I] 0.4 to 50 μM
  kobs/[I]: 28,000 M^-1 s^-1
Human lung tryptase; Table IX, [I] 0.42-0.47 μM
  kobs/[I]: 19,000 M^-1 s^-1
Bovine factor Xa
  kinact/KI: 1640 M⁻¹ s⁻¹
Rat skin tryptase; [5]
  kinact/KI: 63000 M⁻¹ s⁻¹
Rat skin tryptase; [10]
  kinact/KI: 39000 M⁻¹ s⁻¹
Bovine thrombin; [7]
  kinact/KI: 630 M⁻¹ s⁻¹
[4]; [11]
  kinact/KI: > 110000 M⁻¹ s⁻¹

## CCOc1oc(=O)c2cc(NC(=N)N)ccc2c1Cl [7-guanidino-3-ethoxy-4-chloroisocoumarin, 7-guanidino-4-chloro-3-ethoxyisocoumarin]
[3]
  half-life: 0.65 h
Human plasma kallikrein; [6]
  kinact/KI: > 500000 M⁻¹ s⁻¹
[1]
  kobs/[I]: 2,200 M^-1 s^-1
[2]
  kinact/KI: 6180 M⁻¹ s⁻¹
Human lung tryptase; Table III, [I] 0.4 to 50 μM
  kobs/[I]: 61,000 M^-1 s^-1
Bovine factor Xa
  kinact/KI: 26700 M⁻¹ s⁻¹
Rat skin tryptase; [5]
  kinact/KI: 82000 M⁻¹ s⁻¹
Bovine thrombin; [12]
  kinact/KI: > 55000 M⁻¹ s⁻¹
[4]; [11]
  kinact/KI: > 200000 M⁻¹ s⁻¹

## COc1cc2ccc(NC(=N)N)cc2c(=O)o1 [7-guanidino-3-methoxyisocoumarin]
[3]
  half-life: 4.2 h
Human plasma kallikrein; [9]
  kinact/KI: 13000 M⁻¹ s⁻¹
[1]
  kobs/[I]: 53 M⁻¹ s⁻¹
Bovine factor Xa
  kinact/KI: 460 M⁻¹ s⁻¹
Bovine thrombin; [7]
  kinact/KI: 4900 M⁻¹ s⁻¹
[4]; [8]
  kinact/KI: 1900 M⁻¹ s⁻¹

## N=C(N)Nc1ccc2c(Cl)c(OCCc3ccccc3)oc(=O)c2c1 [7-guanidino-4-chloro-3-(2-phenylethoxy)isocoumarin]
[3]
  half-life: 0.6 h
Human plasma kallikrein; [6]
  kinact/KI: > 270000 M⁻¹ s⁻¹
[1]
  kobs/[I]: 3,900 M^-1 s^-1
[2]
  kinact/KI: 1880 M⁻¹ s⁻¹
Human lung tryptase; Table III, [I] 0.4 to 50 μM
  kobs/[I]: 56,000 M^-1 s^-1
Bovine factor Xa
  kinact/KI: 96000 M⁻¹ s⁻¹
Rat skin tryptase; [5]
  kinact/KI: 86000 M⁻¹ s⁻¹
Bovine thrombin; [12]
  kinact/KI: > 30000 M⁻¹ s⁻¹
[4]; [11]
  kinact/KI: 200000 M⁻¹ s⁻¹

## COc1oc(=O)c2cc(NC(=N)N)ccc2c1Cl [7-guanidino-4-chloro-3-methoxyisocoumarin]
[3]
  half-life: 0.733 h
Human plasma kallikrein; pH 7.5, progress curve method
  kinact/KI: 240000 M⁻¹ s⁻¹
[1]
  kobs/[I]: 620 M⁻¹ s⁻¹
[2]
  kinact/KI: 6620 M⁻¹ s⁻¹
Human lung tryptase; Table III, [I] 0.4 to 50 μM
  kobs/[I]: 20,000 M^-1 s^-1
Bovine factor Xa
  kinact/KI: 3100 M⁻¹ s⁻¹
Rat skin tryptase; [5]
  kinact/KI: 52000 M⁻¹ s⁻¹
Bovine thrombin; pH 7.5, Table I, progress curve method
  kinact/KI: 290000 M⁻¹ s⁻¹
[4]; pH 7.5, progress curve method
  kinact/KI: 45000 M⁻¹ s⁻¹

## N=C(N)SCCOc1oc(=O)c2cc(NC(=O)Nc3ccccc3)ccc2c1Cl [PhNHCONH-CiTEtOIC, 7-(phenylcarbamoylamino)-4-chloro-3-(2-isothiureidoethoxy)isocoumarin]
[3]
  t1/2 for spontaneous hydrolysis: 1.8 h
Human lung tryptase; Table IX, [I] 0.42-0.47 μM
  kobs/[I]: 170,000 M^-1 s^-1
Rat skin tryptase; [10]
  kinact/KI: 170000 M⁻¹ s⁻¹
Bovine thrombin; Table VIII, pH 7.5, 25° C, [I] 1.2-54 μM
  kinact/KI: 25000 M⁻¹ s⁻¹
